Experimental data: patent US20230151049A1, “Compounds Useful in HIV Therapy” (priority 2020, published 2023)

Assay: in vivo
Settings: single IM Example 43A 60 mg/kg
Method in brief: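 Three male Wistar Han rats (200-250 g), not fasted, received a single intramuscular gastrocnemius injection of prodrug suspension at 20 mg/kg EFdA equivalent. Tail-vein blood was taken into NaF/Na2EDTA, mixed 1:1 with 100 mM ammonium acetate pH 4, frozen, and analysed by LC-MS/MS.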

**Q.** For `C#C[C@]1(COP(=O)(N[C@@H](Cc2ccccc2)C(=O)OCCCCCCCCCCCCCCCCCCCC)Oc2ccccc2)O[C@@H](n2cnc3c(N)nc(F)nc32)C[C@@H]1O` (single isomer, unassigned) [Example 43A], which “Mean concentration of EFdA” value (day 1) is on record?
**A.** The value was “BQL (BQL = below quantification limit, 0.3 ng/mL for both)”.

**Q.** And the “Mean concentration of EFdA” value (day 7)?
**A.** The value was “BQL (BQL = below quantification limit, 0.3 ng/mL for both)”.

**Q.** And the “Mean concentration of EFdA” value (day 14)?
**A.** Its value is “BQL (BQL = below quantification limit, 0.3 ng/mL for both)”.

**Q.** And the “Mean concentration of EFdA” value (day 21)?
**A.** Its value is “BQL (BQL = below quantification limit, 0.3 ng/mL for both)”.

**Q.** What about the “Mean concentration of EFdA” value (day 28) of the same compound?
**A.** The value was “BQL (BQL = below quantification limit, 0.3 ng/mL for both)”.

**Q.** What about the “Mean concentration of EFdA” value (day 35) of the same compound?
**A.** The value was “BQL (BQL = below quantification limit, 0.3 ng/mL for both)”.

**Q.** What about the “Mean concentration of EFdA” value (day 42) of the same compound?
**A.** The value was “BQL (BQL = below quantification limit, 0.3 ng/mL for both)”.

**Q.** What about the “Mean concentration of EFdA” value (day 49) of the same compound?
**A.** Its value is “BQL (BQL = below quantification limit, 0.3 ng/mL for both)”.

**Q.** And the “Mean concentration of EFdA” value (day 56)?
**A.** The value was “BQL (BQL = below quantification limit, 0.3 ng/mL for both)”.

**Q.** And the “Mean concentration of EFdA” value (day 63)?
**A.** Its value is “BQL (BQL = below quantification limit, 0.3 ng/mL for both)”.

**Q.** And the “Mean concentration of EFdA” value (day 70)?
**A.** Its value is “BQL (BQL = below quantification limit, 0.3 ng/mL for both)”.

**Q.** And the “Mean concentration of EFdA” value (day 77)?
**A.** Its value is “BQL (BQL = below quantification limit, 0.3 ng/mL for both)”.

**Q.** And the “Mean concentration of EFdA” value (day 84)?
**A.** The value was “BQL (BQL = below quantification limit, 0.3 ng/mL for both)”.

**Q.** And the concentration at 1 day (male, Wistar Han, rat, in vivo, day 1, read-out: Mean concentration of Example 43A)?
**A.** The concentration at 1 day was 89.3 ng/mL.

**Q.** What about the concentration at 7 day (male, Wistar Han, rat, in vivo, day 7, read-out: Mean concentration of Example 43A) of the same compound?
**A.** Its concentration at 7 day is 25.4 ng/mL.

**Q.** What about the concentration at 14 day (male, Wistar Han, rat, in vivo, day 14, read-out: Mean concentration of Example 43A) of the same compound?
**A.** Its concentration at 14 day is 22.7 ng/mL.

**Q.** And the concentration at 21 day (male, Wistar Han, rat, in vivo, day 21, read-out: Mean concentration of Example 43A)?
**A.** Its concentration at 21 day is 22.1 ng/mL.

**Q.** What about the concentration at 28 day (male, Wistar Han, rat, in vivo, day 28, read-out: Mean concentration of Example 43A) of the same compound?
**A.** The concentration at 28 day was 11.3 ng/mL.

**Q.** And the concentration at 35 day (male, Wistar Han, rat, in vivo, day 35, read-out: Mean concentration of Example 43A)?
**A.** The concentration at 35 day was 12.7 ng/mL.

**Q.** And the concentration at 42 day (male, Wistar Han, rat, in vivo, day 42, read-out: Mean concentration of Example 43A)?
**A.** The concentration at 42 day was 10.4 ng/mL.

**Q.** What about the concentration at 49 day (male, Wistar Han, rat, in vivo, day 49, read-out: Mean concentration of Example 43A) of the same compound?
**A.** The concentration at 49 day was 7.22 ng/mL.

**Q.** What about the concentration at 56 day (male, Wistar Han, rat, in vivo, day 56, read-out: Mean concentration of Example 43A) of the same compound?
**A.** Its concentration at 56 day is 8.67 ng/mL.

**Q.** What about the concentration at 63 day (male, Wistar Han, rat, in vivo, day 63, read-out: Mean concentration of Example 43A) of the same compound?
**A.** The concentration at 63 day was 12.5 ng/mL.

**Q.** And the concentration at 70 day (male, Wistar Han, rat, in vivo, day 70, read-out: Mean concentration of Example 43A)?
**A.** The concentration at 70 day was 13.1 ng/mL.

**Q.** What about the concentration at 77 day (male, Wistar Han, rat, in vivo, day 77, read-out: Mean concentration of Example 43A) of the same compound?
**A.** Its concentration at 77 day is 13.5 ng/mL.

**Q.** And the concentration at 84 day (male, Wistar Han, rat, in vivo, day 84, read-out: Mean concentration of Example 43A)?
**A.** Its concentration at 84 day is 7.94 ng/mL.
